Measurements: patent US7304174B2, “CaSR antagonist” (Japan Tobacco Inc., priority 2003, dated 2007)
Blank lines part the entries; values can stand above or below the compound they belong to.

Columns and labels:
PTH secretion [1] = assay: PTH secretion action, Experimental Example 2 (serum PTH after oral administration); format: in vivo, male SD rats; conditions: comparative example, 30 mg/5 ml/kg oral
PTH secretion [2] = assay: PTH secretion action, Experimental Example 3 (serum PTH after oral administration); format: in vivo, male SD rats; conditions: test compound administration group, 1 mg/5 ml/kg oral, rats fasted 20 hrs
Protocol: The test compound was orally administered to 5 to 9-week-old male SD rats (Charles River Japan, Inc.) fasted for 20 hrs, using a solvent (0.5% methyl cellulose solution) at a dose of 1 mg/5 ml/kg. A solvent alone was orally administered to the control group at a dose of 5 ml/kg. The blood was drawn from the tail vein immediately before and 15 min, 30 min after administration of the test compound, and serum was obtained. The serum PTH concentration was measured using rat PTH ELISA kit (Amersham Biosciences).

human calcium receptor = molecular target: T1, human calcium receptor (Homo sapiens, UniProt P41180); assay: Evaluation of antagonistic action on calcium receptor using reporter gene (luciferase); format: cell-based; conditions: transformed rat adrenal derived cells, 5 mM calcium chloride, culture 4 hrs, luciferase activity; read-out: Reporter gene assay (IC50, concentration showing 50% inhibitory rate)
T1 construct: expressed in transfected cells; host or cells: cell strain derived from rat adrenal, co-transformed with luciferase cDNA
T1 sequence (P41180 20-1078): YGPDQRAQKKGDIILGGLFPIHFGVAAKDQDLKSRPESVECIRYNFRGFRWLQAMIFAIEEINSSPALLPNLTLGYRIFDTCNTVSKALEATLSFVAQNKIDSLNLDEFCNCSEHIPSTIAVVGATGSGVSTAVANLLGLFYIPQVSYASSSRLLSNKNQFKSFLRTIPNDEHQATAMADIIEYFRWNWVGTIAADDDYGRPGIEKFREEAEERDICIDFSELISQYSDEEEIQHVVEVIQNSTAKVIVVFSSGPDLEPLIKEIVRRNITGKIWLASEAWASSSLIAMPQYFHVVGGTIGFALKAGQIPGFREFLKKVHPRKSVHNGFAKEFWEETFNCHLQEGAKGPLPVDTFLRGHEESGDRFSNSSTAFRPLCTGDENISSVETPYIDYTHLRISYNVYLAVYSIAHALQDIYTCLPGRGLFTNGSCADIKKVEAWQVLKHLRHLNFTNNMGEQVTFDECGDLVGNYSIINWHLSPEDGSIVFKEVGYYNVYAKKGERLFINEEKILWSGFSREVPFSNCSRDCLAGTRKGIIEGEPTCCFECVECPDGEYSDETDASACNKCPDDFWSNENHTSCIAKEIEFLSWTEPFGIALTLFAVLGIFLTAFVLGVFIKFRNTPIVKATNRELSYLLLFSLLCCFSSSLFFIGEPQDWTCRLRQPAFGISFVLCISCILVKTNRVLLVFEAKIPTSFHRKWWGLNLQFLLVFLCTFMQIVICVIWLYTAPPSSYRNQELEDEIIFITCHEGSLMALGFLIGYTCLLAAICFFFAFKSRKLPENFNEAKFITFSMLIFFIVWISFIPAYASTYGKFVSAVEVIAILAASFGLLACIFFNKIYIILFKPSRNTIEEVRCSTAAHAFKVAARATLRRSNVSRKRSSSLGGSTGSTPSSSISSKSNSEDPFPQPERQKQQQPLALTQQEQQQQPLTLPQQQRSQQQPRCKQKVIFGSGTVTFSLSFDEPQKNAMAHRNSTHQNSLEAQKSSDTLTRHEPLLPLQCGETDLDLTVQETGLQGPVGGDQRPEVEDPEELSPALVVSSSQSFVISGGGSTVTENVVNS
Summary of the method: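 Rat adrenal-derived cells transfected with luciferase and human calcium receptor cDNA, in F12 with 0.5% dialyzed horse serum and 0.25% dialyzed fetal bovine serum. Luciferase luminescence gave % inhibition vs control and blank; IC50 at 50% inhibition.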

PTH secretion [3] = assay: Reproductive test of NPS-2143 of the reference (PTH secretion); format: in vivo
PTH release = conditions: cited from earlier work
[4] = OVX rat, 100 μmol/kg; cited from earlier work
[5] = test system: osteoblast and osteoclast; conditions: in vitro; cited from earlier work

Structure (SMILES): COc1ccc(-c2cccc(C(=O)O)c2)cc1C(OC[C@H](O)CNC(C)(C)Cc1ccc2ccccc2c1)C1CC1 (stereo partly drawn)
PTH secretion activity (PTH secretion [1]): no PTH secretion activity was exhibited

IC50 (human calcium receptor): 15 nM
Structure (SMILES): Cc1ccc(CC(C)(C)NC[C@@H](O)CO[C@H](C)c2ccccc2Oc2ccc(C(=O)O)cc2)cc1F [Example 2-1, 4-[2-[(1R)-[(2R)-3-[[1-(3-fluoro-4-methylphenyl)-2-methylpropan-2-yl]amino]-2-hydroxypropoxy]ethyl]phenoxy]benzoic acid]
Serum PTH concentration 15 min later (PTH secretion [2]; 15 min): 25.1 ± 2.3 pg/mL
Serum PTH concentration 30 min later (PTH secretion [2]; 30 min): 19.1 ± 0.9 pg/mL

Structure (SMILES): CC(C)(Cc1ccc2ccccc2c1)NC[C@@H](O)COc1cccc(Cl)c1C#N [NPS-2143]
PTH secretion promoting action (PTH secretion [3]): sustained secretion promoting action
Blood PTH concentration 4 hours later (PTH release; OVX rat, 100 μmol/kg): about 140 pg/ml
Blood PTH concentration in 30 minutes (PTH release; OVX rat, rat PTH (1-34) 5 μg/kg, NPS-2143 100 μmol/kg): about 115 pg/ml
Effect on bone (bone density) (PTH release; OVX rats, oral): free of bone decrease or bone increase
Release of PTH (PTH release; OVX rats, oral): significantly promotes release of PTH
Blood concentration of NPS-2143 8 hours after the administration [4]: not less than 100 ng/ml
Blood concentration of NPS-2143 24 hours later [4]: ≤ 10 ng/mL
Direct effect on osteoblast and osteoclast [5]: did not show any direct effect
